# Assays:
# [1] = target: T1, prothrombinase complex (FXa-FVa) (Homo sapiens, UniProt P00742+P12259); assay: Kinetics of prothrombin and MzIIa activation by C6PS- or membrane-assembled prothrombinase; assay type: biochemical
# T1 construct: Human prothrombin and factor Xa; tissue Hematologic Technologies Inc. (factor Xa only); factor Xa purchased
# Method: Fluorescence Stopped-Flow Measurements. The rates of thrombin formation from either MzIIa or Pre2 (with equimolar fragment 1.2), or of thrombin plus MzIIa formation from human prothrombin, were estimated from the time-dependent fluorescence change of DAPA bound to the activation products. […] Stopped-flow measurements were performed using an SLM-Aminco Milliflow® stopped flow reactor (Spectronic Instruments, Inc., Rochester, N.Y.) attached to the SLM 48000® spectrofluorometer (Spectronic Instruments) as described (Wu, et al. (2002) supra; Weinreb, et al. (2003) supra). […] The calculation of rates from measurements of initial fluorescence intensity (F0) and intensity at the completion of the reaction (F∞) is well-established (Nesheim and Mann (1983) supra; Wu, et al. (2002) supra).
# Rapid Chemical Quench Measurements. […] Prothrombin solution in 50 mM Tris, 150 mM NaCl, 5 mM Ca^2+, 0.6% PEG (to limit thrombin adsorption to micro-plates), pH 7.5, was loaded into one sample loop, and pre-assembled prothrombinase complex (factor concentrations same as in stopped flow fluorescence studies) in the same buffer was loaded into another sample loop. […]
# APC = APC (Homo sapiens, UniProt P04070); assay: SPS binding to APC; conditions: other experiments
# From the text: Proteolysis at Arg^506 leads to partial inactivation, but proteolysis at Arg^306 is necessary for full inactivation (Kalafatis & Mann (1993) J. Biol. Chemistry 268 27246; Nicolaes et al., (1995) J. Biol. Chemistry (1995) 270 21158). […] The rate of proteolysis of the bond at Arg^306 increased from undetectable to a value of kcat/KM=3-3.5×10^6 M^−1sec^−1, identical to the rate reported with PS-containing membranes.
# T1 sequence (P00742 41-179 limits assumed): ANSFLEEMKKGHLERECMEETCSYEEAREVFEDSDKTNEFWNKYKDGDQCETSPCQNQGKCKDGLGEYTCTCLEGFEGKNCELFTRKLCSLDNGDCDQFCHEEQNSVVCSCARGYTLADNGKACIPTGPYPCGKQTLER
# T1 sequence (P00742 235-488 limits assumed): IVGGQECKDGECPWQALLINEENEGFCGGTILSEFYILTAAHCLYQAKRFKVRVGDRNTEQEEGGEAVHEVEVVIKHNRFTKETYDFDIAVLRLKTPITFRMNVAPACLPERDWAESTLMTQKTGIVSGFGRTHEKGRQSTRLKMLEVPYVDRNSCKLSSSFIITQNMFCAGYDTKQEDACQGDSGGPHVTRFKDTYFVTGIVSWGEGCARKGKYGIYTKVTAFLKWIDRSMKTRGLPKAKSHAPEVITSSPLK
# T1 sequence (P12259 29-737 limits assumed): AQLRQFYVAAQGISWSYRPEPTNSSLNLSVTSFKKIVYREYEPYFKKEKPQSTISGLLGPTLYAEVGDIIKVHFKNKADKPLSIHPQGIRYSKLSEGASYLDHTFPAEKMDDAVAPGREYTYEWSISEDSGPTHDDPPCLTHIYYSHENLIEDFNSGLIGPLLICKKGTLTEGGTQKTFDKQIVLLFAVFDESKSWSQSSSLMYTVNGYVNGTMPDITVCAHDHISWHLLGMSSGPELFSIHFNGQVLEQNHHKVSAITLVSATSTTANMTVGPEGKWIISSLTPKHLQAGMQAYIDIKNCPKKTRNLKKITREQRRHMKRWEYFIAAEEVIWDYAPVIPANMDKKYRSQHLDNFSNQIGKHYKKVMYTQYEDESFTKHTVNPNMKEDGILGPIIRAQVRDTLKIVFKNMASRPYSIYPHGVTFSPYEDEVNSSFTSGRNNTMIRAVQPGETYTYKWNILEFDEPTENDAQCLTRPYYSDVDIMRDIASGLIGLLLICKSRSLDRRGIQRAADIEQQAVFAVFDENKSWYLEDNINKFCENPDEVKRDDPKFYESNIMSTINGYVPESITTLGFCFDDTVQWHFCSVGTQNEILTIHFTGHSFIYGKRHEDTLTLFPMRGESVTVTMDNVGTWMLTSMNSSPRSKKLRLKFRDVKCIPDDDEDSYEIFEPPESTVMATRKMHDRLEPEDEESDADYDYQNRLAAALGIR
# T1 sequence (P12259 1574-2224 limits assumed): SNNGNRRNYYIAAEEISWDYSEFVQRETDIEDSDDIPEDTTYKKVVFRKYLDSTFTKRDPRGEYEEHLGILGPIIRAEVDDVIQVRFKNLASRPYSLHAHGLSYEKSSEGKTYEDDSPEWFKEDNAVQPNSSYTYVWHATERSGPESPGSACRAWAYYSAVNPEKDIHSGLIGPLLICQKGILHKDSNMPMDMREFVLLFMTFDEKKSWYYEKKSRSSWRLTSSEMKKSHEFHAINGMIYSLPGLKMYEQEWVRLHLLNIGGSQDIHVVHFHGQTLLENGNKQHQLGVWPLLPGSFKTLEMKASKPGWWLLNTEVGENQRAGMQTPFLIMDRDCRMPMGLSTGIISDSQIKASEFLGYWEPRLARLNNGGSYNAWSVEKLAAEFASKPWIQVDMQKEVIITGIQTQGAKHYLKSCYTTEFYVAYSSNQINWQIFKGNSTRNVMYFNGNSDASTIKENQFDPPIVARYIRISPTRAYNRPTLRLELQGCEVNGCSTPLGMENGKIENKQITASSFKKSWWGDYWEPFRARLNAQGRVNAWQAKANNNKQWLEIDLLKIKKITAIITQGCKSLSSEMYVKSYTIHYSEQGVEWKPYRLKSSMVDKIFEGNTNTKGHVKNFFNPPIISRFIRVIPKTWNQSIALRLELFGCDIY
# Chain of APC (P04070 43-197 limits assumed): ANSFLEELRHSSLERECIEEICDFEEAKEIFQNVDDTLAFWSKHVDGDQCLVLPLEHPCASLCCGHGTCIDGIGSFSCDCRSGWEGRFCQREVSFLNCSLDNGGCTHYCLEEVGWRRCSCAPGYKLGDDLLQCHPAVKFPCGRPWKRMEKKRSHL
# Chain of APC (P04070 212-461 limits assumed): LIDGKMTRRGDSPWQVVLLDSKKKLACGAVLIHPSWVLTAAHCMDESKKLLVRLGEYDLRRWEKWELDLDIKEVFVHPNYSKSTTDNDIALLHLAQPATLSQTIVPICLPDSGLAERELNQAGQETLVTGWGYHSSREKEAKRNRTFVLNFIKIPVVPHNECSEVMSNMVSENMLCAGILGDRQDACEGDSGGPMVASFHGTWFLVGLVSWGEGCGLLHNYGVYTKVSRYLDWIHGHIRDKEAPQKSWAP
smiles,measurement,setting,value
"CCCCCC(=O)OC[C@H](COP(=O)(O)OC[C@H](N)C(=O)O)OC(=O)CCCCC [C6PS, 1,2-dicaproyl-sn-glycero-3-phospho-L-serine]",fraction of prothrombin converted directly (channeled) to thrombin,"[1]; 400 μM C6PS, FXa 1 nM, FVa2 5 nM",58%
same,activation by C6PS-assembled complex relative to literature membrane complex,[1]; C6PS with FVa2 vs membrane with FVa,an order of magnitude faster
same,Kd,APC,~1000 nM
